In US8530491B2, “Antimalarial compounds with flexible side-chains” (Medicines for Malaria Venture (MMV), priority 2007, dated 2013):
In brackets after ≈: the same amount, converted by molar mass.

Experiments:
[1] = Cytotoxicity in mammalian cells; assay type: cell-based; conditions: African green monkey, Vero cells (African green monkey kidney epithelial cells)
[2] = test system: P. berghei ANKA; assay: Standard 4-day Peters' test against P. berghei ANKA in mice; assay type: in vivo, Plasmodium berghei; conditions: oral, lethal non-resistant strain
Description: (§1) Briefly, 20 gr CD1 male mice (Charles Rivers, UK) were kept in specific pathogen-free conditions and fed ad libitum. For oral administration, compounds were dissolved in standard suspending formula (SSV) [0.5% sodium carboxymethylcellulose, 0.5% benzyl alcohol, 0.4% Tween 80, 0.9% NaCl (all Sigma)] and for intraperitoneal or subcutaneous administration compounds were dissolved in 0.5% w/v hydroxypropylmethylcellulose, 0.4% v/v Tween 80, 0.5% V/v benzyl alcohol in de-ionised water]. Mice were infected intravenously with 4×10^6 infected red cells and treated orally (p.o.) with 0.2 ml of a solution of the test compounds two hours (day 0) and on days 1, 2 and 3 post-infection. Parasitaemia was determined by microscopic examination of Giemsa stained blood films taken on day 4. Microscopic counts of blood films from each mouse were processed using GraphPad Prism 4 (GraphPad Software, Inc., CA, USA) and expressed as percentages of inhibition from the arithmetic mean parasitaemias of each group in relation to the untreated group. Compounds were tested in an initial screening at 30 mg/kg/day against P. chabaudi AS (non-resistant) over the period described and percentages of inhibition calculated in relation to the untreated controls. Compounds giving 80% inhibition or above were then tested in the same model under a range of doses over the period described in order to obtain dose response curves and calculate their ED50 and ED90 values. […] From the ED90 values is clear that a number of compounds have exquisite activity in this model and are also tested in P. chabaudi ASP and P. berghei ANKA.

[3] = test system: P. chabaudi ASP; assay: Standard 4-day Peters' test against P. chabaudi ASP (pyrimethamine-resistant) in mice; assay type: in vivo, Plasmodium chabaudi
Description: as §1

[4] = Oral bioavailability and pharmacokinetics in male Sprague Dawley rats; assay type: in vivo; conditions: for Oral BA: i.v. and oral dosing; for Vd: intravenous; for clearance: read-out: i.v. CL(plasma)
Description: Rats had free access to water throughout the pre- and post-dose sampling period, and access to food was re-instated 4 hours post-dosing. Test compounds were administered intravenously as a 5 minute constant rate infusion (1.0 mL per rat) and orally by gavage (1.0 mL per rat). The IV formulations were typically buffered aqueous solutions containing a co-solvent if required for solubilization. The oral formulations were prepared as suspensions in hydroxypropylmethyl cellulose or carboxymethyl cellulose, each with the addition of Tween 80 and benzyl alcohol. Samples of arterial blood and total urine were collected up to 24 hours post-dose. Arterial blood was collected directly into borosilicate vials (at 4° C.) containing heparin, a protease inhibitor cocktail, potassium fluoride, and EDTA to minimise the potential for ex vivo degradation of the test compound in blood/plasma samples. Once collected, blood samples were centrifuged, supernatant plasma was removed and stored at −20° C., and plasma concentrations of test compound were determined by LCMS.

[5] = test system: P. chabaudi AS; assay: Standard 4-day Peters' test against P. chabaudi AS in mice; assay type: in vivo, Plasmodium chabaudi; conditions: Plasmodium chabaudi, 96 h, oral, 4-day Peters' test; for ED50: 50% reduction in parasitaemia; for ED90: 90% reduction in parasitaemia
Description: as §1

[6] = target: T1, Pf DHFR C59R + S108N (Plasmodium falciparum, UniProt A7UD81, C59R/S108N); assay: biochemical
T1 construct: made in house; host or cells: E. coli BL21(DE3)pLysS

[7] = target: T2, Pf DHFR C59R + S108N + I164L (Plasmodium falciparum, UniProt A7UD81, C59R/I164L/S108N); assay: biochemical
T2 construct: made in house; host or cells: E. coli BL21(DE3)pLysS

[8] = target: T3, Pf DHFR N51I + C59R + S108N + I164L (Plasmodium falciparum, UniProt A7UD81, C59R/I164L/N51I/S108N); assay: biochemical
T3 construct: made in house; host or cells: E. coli BL21(DE3)pLysS

[9] = target: T4, Pf DHFR N51I + C59R + S108N (Plasmodium falciparum, UniProt A7UD81, C59R/N51I/S108N); assay: biochemical
T4 construct: made in house; host or cells: E. coli BL21(DE3)pLysS

[10] = target: T5, Pf DHFR WT (Plasmodium falciparum, UniProt A7UD81); assay: Pf DHFR enzyme inhibition (Ki), wild type; assay type: biochemical
T5 construct: made in house; host or cells: E. coli BL21(DE3)pLysS

[11] = test system: P. falciparum TM4/8.2 (wild type); assay: In vitro anti-plasmodial activity, [3H]-hypoxanthine incorporation; assay type: cell-based, Plasmodium falciparum; conditions: Plasmodium falciparum, read-out: IC50-P. falciparum TM4/8.2 (WT), TM4/8.2
[12] = test system: E. coli; assay: Antibacterial activity, minimal inhibitory concentration on agar plates; assay type: cell-based; conditions: Escherichia coli; complete inhibition of growth on agar plates
[13] = test system: S. aureus; assay: as above; assay type: cell-based; conditions: Staphylococcus aureus; complete inhibition of growth on agar plates

T2 sequence (A7UD81 whole entry C59R/S108N/I164L): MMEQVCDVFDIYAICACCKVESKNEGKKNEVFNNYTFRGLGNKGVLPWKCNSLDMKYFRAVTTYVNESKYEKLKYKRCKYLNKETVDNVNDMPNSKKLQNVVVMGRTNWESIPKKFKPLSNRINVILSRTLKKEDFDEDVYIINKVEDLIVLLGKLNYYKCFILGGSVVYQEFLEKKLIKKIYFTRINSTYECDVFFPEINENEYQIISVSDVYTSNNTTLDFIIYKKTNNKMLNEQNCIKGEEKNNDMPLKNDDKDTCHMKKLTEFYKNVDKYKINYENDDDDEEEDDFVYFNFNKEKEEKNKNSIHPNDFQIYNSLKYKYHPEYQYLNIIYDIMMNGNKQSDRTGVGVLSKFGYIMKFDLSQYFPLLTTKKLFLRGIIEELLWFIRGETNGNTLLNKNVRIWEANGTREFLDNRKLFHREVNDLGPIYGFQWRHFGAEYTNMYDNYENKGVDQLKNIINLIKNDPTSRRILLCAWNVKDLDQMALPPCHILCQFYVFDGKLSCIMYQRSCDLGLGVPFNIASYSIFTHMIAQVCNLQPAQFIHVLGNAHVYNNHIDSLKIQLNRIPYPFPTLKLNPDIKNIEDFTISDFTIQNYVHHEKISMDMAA
T4 sequence (A7UD81 whole entry N51I/C59R/S108N): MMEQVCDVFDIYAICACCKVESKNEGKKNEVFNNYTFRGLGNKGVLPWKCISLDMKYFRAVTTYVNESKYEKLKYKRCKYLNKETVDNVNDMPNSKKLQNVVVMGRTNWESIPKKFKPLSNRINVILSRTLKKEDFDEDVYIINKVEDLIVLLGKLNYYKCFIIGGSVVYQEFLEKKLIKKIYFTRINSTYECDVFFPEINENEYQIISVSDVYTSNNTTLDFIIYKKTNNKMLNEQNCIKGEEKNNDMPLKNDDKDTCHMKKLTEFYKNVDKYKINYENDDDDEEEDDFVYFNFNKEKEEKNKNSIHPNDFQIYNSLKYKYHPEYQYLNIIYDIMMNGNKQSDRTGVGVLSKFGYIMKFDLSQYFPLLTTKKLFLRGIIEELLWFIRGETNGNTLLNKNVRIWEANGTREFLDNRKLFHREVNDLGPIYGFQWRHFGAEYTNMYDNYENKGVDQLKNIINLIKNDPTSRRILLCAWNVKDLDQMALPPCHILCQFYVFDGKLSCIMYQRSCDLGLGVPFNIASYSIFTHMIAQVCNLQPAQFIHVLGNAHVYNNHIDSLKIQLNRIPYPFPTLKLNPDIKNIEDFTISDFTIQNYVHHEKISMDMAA
T1 sequence (A7UD81 whole entry C59R/S108N): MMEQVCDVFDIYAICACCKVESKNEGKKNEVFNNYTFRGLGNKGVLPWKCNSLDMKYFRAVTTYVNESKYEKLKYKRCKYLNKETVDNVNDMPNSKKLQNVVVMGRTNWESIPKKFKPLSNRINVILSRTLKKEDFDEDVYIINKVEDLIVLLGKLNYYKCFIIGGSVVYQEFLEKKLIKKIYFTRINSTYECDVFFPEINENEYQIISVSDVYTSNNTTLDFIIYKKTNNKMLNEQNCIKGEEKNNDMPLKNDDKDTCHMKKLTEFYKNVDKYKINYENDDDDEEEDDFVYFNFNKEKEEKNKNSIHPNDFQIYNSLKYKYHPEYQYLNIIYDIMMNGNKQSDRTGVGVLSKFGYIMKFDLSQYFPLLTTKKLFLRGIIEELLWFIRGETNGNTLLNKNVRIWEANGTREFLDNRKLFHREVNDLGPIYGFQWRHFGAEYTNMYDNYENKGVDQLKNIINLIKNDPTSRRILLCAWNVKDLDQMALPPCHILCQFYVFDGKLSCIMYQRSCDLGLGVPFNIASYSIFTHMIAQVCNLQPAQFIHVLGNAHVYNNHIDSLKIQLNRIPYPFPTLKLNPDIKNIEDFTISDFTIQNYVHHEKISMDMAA
T5 sequence (A7UD81 1-608): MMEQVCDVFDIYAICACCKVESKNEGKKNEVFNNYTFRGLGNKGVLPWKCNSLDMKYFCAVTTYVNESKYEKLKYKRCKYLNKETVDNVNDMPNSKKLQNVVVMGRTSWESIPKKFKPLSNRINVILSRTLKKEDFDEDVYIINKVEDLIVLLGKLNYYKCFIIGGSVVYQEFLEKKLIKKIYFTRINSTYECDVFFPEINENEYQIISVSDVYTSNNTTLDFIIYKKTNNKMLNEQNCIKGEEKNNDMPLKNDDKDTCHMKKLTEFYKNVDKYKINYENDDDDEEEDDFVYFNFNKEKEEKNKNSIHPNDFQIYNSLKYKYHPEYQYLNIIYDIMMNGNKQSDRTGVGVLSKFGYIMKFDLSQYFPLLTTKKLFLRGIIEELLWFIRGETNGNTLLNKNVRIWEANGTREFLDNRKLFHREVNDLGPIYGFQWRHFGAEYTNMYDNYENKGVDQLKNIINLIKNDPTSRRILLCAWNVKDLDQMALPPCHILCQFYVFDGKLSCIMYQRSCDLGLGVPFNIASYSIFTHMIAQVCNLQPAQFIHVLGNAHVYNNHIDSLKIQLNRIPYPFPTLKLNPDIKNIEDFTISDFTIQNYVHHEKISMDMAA
T3 sequence (A7UD81 whole entry N51I/C59R/S108N/I164L): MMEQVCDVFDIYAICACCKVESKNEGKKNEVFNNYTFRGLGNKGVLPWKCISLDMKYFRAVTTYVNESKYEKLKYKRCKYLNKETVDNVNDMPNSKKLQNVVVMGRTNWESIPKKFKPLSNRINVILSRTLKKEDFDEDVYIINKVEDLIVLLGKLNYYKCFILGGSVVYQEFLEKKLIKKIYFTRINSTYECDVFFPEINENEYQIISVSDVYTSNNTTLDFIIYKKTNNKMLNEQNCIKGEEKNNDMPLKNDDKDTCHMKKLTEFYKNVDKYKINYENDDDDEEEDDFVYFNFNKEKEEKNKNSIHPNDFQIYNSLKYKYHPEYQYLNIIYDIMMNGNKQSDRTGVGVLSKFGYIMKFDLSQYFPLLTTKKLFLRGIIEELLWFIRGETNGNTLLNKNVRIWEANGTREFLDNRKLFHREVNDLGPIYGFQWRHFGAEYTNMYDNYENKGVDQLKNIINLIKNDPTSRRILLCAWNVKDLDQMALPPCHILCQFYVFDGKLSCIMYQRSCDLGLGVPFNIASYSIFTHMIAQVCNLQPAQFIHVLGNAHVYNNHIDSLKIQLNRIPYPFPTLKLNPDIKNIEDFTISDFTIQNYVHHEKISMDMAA

SMILES	IC50 [1]	ED50 ([2]; Plasmodium berghei)	ED90 P. berghei ANKA [2]	ED50 ([3]; Plasmodium chabaudi, po, read-out: ED50 P. chabaudi ASP)	ED90 P. chabaudi ASP ([3]; oral, pyrimethamine-resistant strain)	Oral BA [4]	ED50 [5]	ED90 [5]	Ki [6]	Ki [7]	Ki [8]	Ki [9]	Ki [10]	IC50 [11]	Vd ([4]; rat, plasma)	clearance ([4]; rat, plasma, iv, i.v. dosing)	MIC [12]	MIC [13]	half-life ([4]; rat, plasma, iv, i.v. dosing, read-out: i.v. t1/2 (converted))
CCc1nc(N)nc(N)c1OCCCOc1ccnc2ccccc12 [Compound P113, 2,4-diamino-6-ethyl-5-(3-(quinolin-4-yloxy)propoxy)pyrimidine]	119 nM	0.01 mg/kg	0.03 mg/kg	0.003 mg/kg	0.01 mg/kg	<2.0 % of dose	0.006 mg/kg	0.01 mg/kg	1.86 ± 0.11 nM	3.06 ± 0.21 nM	4.33 ± 0.28 nM	1.82 ± 0.17 nM	1.21 ± 0.17 nM	4 ± 3 nM					
CCc1nc(N)nc(N)c1OCCCOc1ccccc1OCCCC(=O)O [Compound P135, 2,4-diamino-6-ethyl-5-(3-(2-(3-carboxypropoxy)phenoxy)propoxy)pyrimidine]	> 10000 nM					7.0 % of dose	2 mg/kg	5.2 mg/kg	0.98 ± 0.003 nM	2.54 ± 0.04 nM	3.47 ± 0.09 nM	1.2 ± 0.05 nM	0.72 ± 0.03 nM	1.6 ± 0.6 nM	1.6 L/kg	49.1 mL/min/kg	> 50 µM	> 50 µM	
CCc1nc(N)nc(N)c1OCCCOc1ccnc2ccc(Cl)cc12 [Compound P149, 2,4-diamino-6-ethyl-5-(3-(6-chloro-quinolin-4-yloxy)propoxy)pyrimidine]						10 % of dose	0.01 mg/kg	0.02 mg/kg	2.37 ± 0.16 nM	3.66 ± 0.48 nM	4.23 ± 1.06 nM	3.4 ± 0.15 nM	1.05 ± 0.18 nM	3.2 ± 0.7 nM	51.2 L/kg	66.3 mL/min/kg	10 to 50 µM (≈ 3.74 to 18.7 µg/mL)	1 to 10 µM (≈ 0.374 to 3.74 µg/mL)	24.3 h
